Where a name gives a salt, the structure may show the parent alone.
Assays:
DP IV [1] = target: T1, DP IV (Homo sapiens, UniProt P27487); test: DP IV inhibition IC50, parallel-synthesis compounds tested directly following synthesis (without purification); format: biochemical; set-up: IC50 DP4; other: tested directly following parallel synthesis, without purification; compounds of formula (Ib) from parallel synthesis, tested directly following synthesis; conditions: DP IV inhibition; compounds of formula (Ib) from parallel synthesis, tested directly following synthesis (without purification); read-out: IC50
In short: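 Porcine kidney or recombinant human enzyme (~40-50 μU/ml, HEPES buffer) hydrolysing Gly-Pro-pNA at room temperature, with 5% DMSO final; 11-point 1:2 dilutions from 100 μM final, in duplicate. pNA release read at 405 nm over ~18 min; slopes vs solvent control give residual activity, and IC50 comes from a 4-parameter fit.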

[2] = target: dipeptidyl peptidase (DP IV) (UniProt P27487); test: Determination of IC50 against DP IV (hydrolysis of Gly-Pro-pNA); format: biochemical, porcine kidney or recombinant human; conditions: compounds obtained by preparative synthesis
Method: Determination of IC50 Against DP IV
Substances are screened for inhibition of dipeptidyl peptidase (DP IV) by their ability to inhibit the hydrolysis of the DP IV specific substrate Glycyl-Prolyl-4-Nitroanilide (Gly-Pro-pNA). All compounds are diluted in DMSO and IC50 will be determined with 11 serial dilutions (1:2) starting with an final concentration of 100 μM. The final DMSO concentration in the assay is 5% (v/v). The method was automated using a Tecan Genesis Freedom liquid handler and a Genius Pro (Tecan) microplate reader.
A stock solution of 0.102 M HEPES is prepared. Ionic strength (I=0.32) is adjusted by KCl and pH (pH 7.6) by KOH.
2.16 mM solution of Gly-Pro-pNA in deionized water is prepared.
All samples are dissolved in DMSO preparing a 10 mM stock solution.
DP IV from porcine kidney (pDP IV) or recombinant human DP IV (rhDP IV) is diluted in HEPES buffer to a final activity of approximately 40-50 μU*ml^−1. The DP IV is stored in a cooling rack (4° C.) on the liquid handler.
The assay may becarried out at room temperature using Freedom liquid handler connected with a Genios Pro microplate reader. Each sample is measured in duplicate. Each sample stock solution is prediluted with DMSO in a ratio of 1:5 in a polypropylen 96-well plate. From this predilution 10 serial (1:2) dilutions in DMSO are prepared. 13.5 μl of the 11 DMSO dilutions and DMSO alone are transferred to the measurement microplate (duplicates) and 86.5 μl water, 100 μl HEPES buffer and 50 μl substrate solution are added to each well. The enzymatic reaction is started by addition of 20 μl enzyme solution to each well, and then the microplate is immediately transferred to the microplate reader.
After short mixing (20 s) the release of 4-Nitroanilin (pNA) is monitored at 405 nm for 30 cycles (approx. 18 min).
Post assay calculations are done by the Magellan (Tecan) and Graphit Software. The linear slopes are calculated for each well and averaged for the duplicates. The residue activities are calculated in relation to a sample containing only solvent instead of inhibitor and expressed in %. Residue activities are plotted against the log of inhibitor concentrations and IC50 is calculated by an 4-parameter fitting ranging from 0 to 100%.

Caco-2 monolayer = test: Caco-2 transport assay; format: in vitro ADME, human; conditions: assessment of permeability and transport type
Method: (§1) The concentration of compounds in the Caco experiments may be determined from their potency to inhibit recombinant human DP IV.
(§2) Reaction is started by addition of 20 μl rhDP IV and release of pNA was monitored at 405 nm. Samples are analyzed in several dilutions (undiluted, 1:10, 1:[…]). Dilutions are done in the Caco assay buffer. Activity measured with Caco-assay buffer alone is set to 100% and inhibitor concentration is calculated from the dilutions resulting in 20 to 80% inhibition according to the equation for competitive inhibition.
(§3) [formula] • I=inhibitor concentration • v0=velocity of the reaction without inhibitor (Caco assay buffer alone) • vi=velocity of the reaction with inhibitor sample • Ki=Ki-value of the compound • DF=dilution factor of the sample Transport Assay
(§4) The human colon adenocarcinome cell line Caco-2 are grown in 6- or 24-transwell microplates (Costar) for 21 days with MEM-alpha containing 10% FBS and 0.5% Gentamycin (Invitrogen). After 21 days of cultivation integrity of the cell layer are assessed by measurement of the transepitelial electrical resistance.
(§5) Transport measurements are carried out in triplicates at a pH of 7.5. For each compound and direction (apical to basal (a-b), basal to apical (b-a)) two separate experiments are done. Samples are collected from the donor and acceptor compartments at the beginning of the experiment and after 60 min (for 6-well plates, Donor at 0 and 120 min, Acceptor at 15, 30, 60 and 120 min).
(§6) Samples are analyzed in several dilutions for their ability to inhibit human recombinant DP IV and compound concentrations may be calculated using the prior determined Ki-value (see above).
(§7) The permeability coefficient Papp is calculated according to the following equation:
(§8) [formula] • VA=Volume of the acceptor compartment • A=Area of the transwell membrane • t=sampling time • cAt=concentration in the acceptor compartment at sampling time • CDO=concentration in the donor compartment at t=0
(§9) Papp-values>1e-5 cm/s are assessed as good permeable, value<1e-6 cm/s as not permeable. Papp-values in between as medium permeable. Compounds where no significant difference were found between a-b and b-a transport are assessed to be passive transported.

Caco-2 transport assay = format: in vitro ADME, human; conditions: human, Caco-2, pH 7.5; for Papp A→B: apical to basal; for Papp B→A: basal to apical
Method: as §1, §2, §3, §4, §5, §6, §7, §8, §9

DPII = DPII (Homo sapiens, UniProt Q9UHL4); test: DPII assay; format: biochemical; conditions: for Selectivity DPII(IC50)/DPIV(Ki): ratio IC50 DPII / Ki DP IV; for IC50: sodium acetate buffer pH 5.5, Gly-Pro-AMC 1 mM
Method: (§10) Determination of IC50 values for DPII and DP9 are done similarly as described for DP IV.
For DPII instead of the HEPES buffer a 0.2 M sodium acetate buffer pH 5.5 is used. As substrate Gly-Pro-AMC is used in a final concentration of 1 mM.

DP9 = DP9 (Homo sapiens, UniProt Q86TI2); test: DP9 assay; format: biochemical; conditions: for Selectivity DP9(IC50)/DPIV(Ki): ratio IC50 DP9 / Ki DP IV
Method: as §10
For DP9 Gly Pro-AMC is used as substrate in a final concentration of 0.25 mM.

[3] = test system: liver cell carcinoma cell line Hep-G2; test: Cytotoxicity screening and LD50 determination on Hep-G2 (LDH, CytoTox-One); format: cell-based; conditions: 100 μM; for Cytotox 100 μM (%) HEPG2 / Viability 100 μM (%) HEP-G2: 24 h; for Cytotox 100 μM (%) HEPG2: LDH activity in cell culture media, lysed untreated cells = 100%; for Viability 100 μM (%) HEP-G2: LDH of lysed cells, untreated control = 100%
Method: Cytotoxicity of the compounds may be screened using the liver cell carcinoma cell line Hep-G2.
After 24 h of cultivation in a 96 well plate (50 000 cells/well) compounds (dissolved in DMSO) are added and cytotoxicity and vitality of the cells are analysed after another 24 h of cultivation using the CytoTox-One Homogenoeous membrane toxicity assay (Promega).
Three concentrations (100 μM, 2 μM, 40 nM) of each compound are analysed in triplicates. The final DMSO concentration was 1%.
For cytotoxicity the LDH activity in the cell culture media after 24 h of incubation are analysed. The untreated control is set to 0% cytotoxicity. For the 100% value LDH activity of lysed untreated cells are analysed.
For viability cell culture media are removed from the cells and all cells are lysed using the lysis buffer. LDH activity is determined and untreated control is set to 100% viability.
For determination of LD50 the liver carcinoma cell line HEP-G2 and the neuroblastoma cell line SY5Y may be used. The effect of 8 serial dilutions of the compounds (highest concentration 1 mM) is investigated as described above.
The cytotoxicity of certain example compounds (in each case prepared by preparative synthesis) was screened using Hep-G2 cells. Compounds were tested in concentrations of 100 μM, 2 μM and 40 nM.

DP IV [4] = target: T1, DP IV; test: Ki and inhibition type, DP IV; format: biochemical; conditions: compounds obtained by preparative synthesis
Method: Measurement of DP IV activities for Ki determination is carried out as described for IC50. For Ki determination samples were analysed in triplicates. 7 serial dilutions of the inhibitor (range calculated from the IC50 determination) in water are analyzed with 4 serial dilutions of the substrate.
Data are analysed by non-linear regression to the inhibitor equations using Graphit software. Ki-value and inhibition type are determined using the inhibitor equation (competitive, partiell competitive, non-competitive) which gives the best fitting results. […]

male Sprague Dawley rats = test: Circadian courses of activity, feeding and drinking behaviour; body weight, food and fluid consumption during chronic administration; format: in vivo, rat; conditions: vs vehicle
Method: Example 130b as hydrochloride salt was dissolved in tap water in concentrations of 0.03, 0.1 and 0.3 mg/ml. Assuming a daily fluid intake of approx. 30 ml per animal (animal's weight: approx. 300 g), these concentrations should result in doses of approx. 3, 10 and 30 mg/kg/day. The solutions were prepared freshly every day. During chronic administration, solution offer was limited to 40 ml per day for each animal.
Imipramine was dissolved 0.5% Natrosol and administered once daily i.p. for 8 days (test group TG 11, see below) with a dose of 15 mg/kg/day in a volume of 1 ml/kg.
216 male Sprague Dawley rats. The animals were 6 weeks old at the start of the study. They were housed in groups of 4 animals (“acute animals”) or in single cages (“chronic animals”) at 12 h/12 h light/dark (start of the light phase at 2 a.m.), 20° C., 60% rH. Animals were provided by Elevage Janvier, France.
During the 7 days lasting period of chronic compound administration, animals were kept singly. On the first day they were kept in single Macrolon home cages. On the next day they were transferred to activity monitoring cages and kept there for 3 days. For the following 3 days they returned to their home cages (single housing).
Animals received the test compound chronically via the drinking fluid. The reference compound Imipramine was given i.p. (one administration per day, one hour before the respective tests). Fluid supply was restricted to 40 ml per day for all test groups. On the first day of chronic test compound exposure, animals were kept singly in standard single home cages to enable an individual assessment of test compound intake. On the second day, animals were transferred to infrared monitoring cages for 3 days. Food and fluid offer were the same as in the home cage. Measuring rearing activity near fluid bottles and food grid enabled an assessment of the time structure of food and water (compound) consumption. Behavioural observation started one hour before the beginning of the dark phase (2 p.m.). After 22 hours, body weight, food and fluid consumption were measured. 2 hours later, the next recording started.
Raw data were provided as computer files accompanied by written protocol sheets. As the animals were still adapting to the environment and administration the time courses of the following parameters were calculated only for the last day of registration: • Food and fluid intake (time %) • Number of feeding and […] bouts • Meal pattern parameters reflecting e.g. the duration and recurrence of feeding and drinking bouts • Total distance travelled (cm/min) • Small movements (cm/min) • Distance travelled with rapid locomotion (cm/min) • Distance travelled with slow locomotion (cm/min) • Immobility (time %) • Use of available space (%) • Locomotor stereotypies (score, first hour of the dark phase only) • Rearing (time %) • Number of rearing acts (N) Feeding and Drinking Bouts and Bout-Related Analysis:
On the basis of high-resolution infrared beam recordings, feeding and drinking is identified by means of beam interruption in the upper frame near to the positions of food or water. Feeding or drinking acts are then defined as temporally contingent behavioural pattern separated from each other by intervals not longer than 0.5 seconds. Normally, several acts form a feeding or drinking bout. The intervals within a bout are definitely shorter than between subsequent bouts. A threshold interval can be set to distinguish between intra-bout and inter-bout intervals.
Stereotyped locomotion was assessed by means of statistical comparisons between the observed locomotor sequences (as described by the movement from one of the 4×4 subsquares to another) and a “random walk”. The comparison is performed at 5 different levels:
The coefficient of locomotor stereotypies (SC, in %) at each level has a value of SC=0 when there are no regularities within the movement pattern (random walk). […]

[5] = circadian registration, Imipramine 15 mg/kg/day i.p., Example 130b approx. 3, 10, 30 mg/kg/day
[6] = Imipramine 15 mg/kg/day i.p., Example 130b hydrochloride approx. 3, 10, 30 mg/kg/day via drinking fluid

Sequence of DP9 (Q86TI2 whole entry, species assumed): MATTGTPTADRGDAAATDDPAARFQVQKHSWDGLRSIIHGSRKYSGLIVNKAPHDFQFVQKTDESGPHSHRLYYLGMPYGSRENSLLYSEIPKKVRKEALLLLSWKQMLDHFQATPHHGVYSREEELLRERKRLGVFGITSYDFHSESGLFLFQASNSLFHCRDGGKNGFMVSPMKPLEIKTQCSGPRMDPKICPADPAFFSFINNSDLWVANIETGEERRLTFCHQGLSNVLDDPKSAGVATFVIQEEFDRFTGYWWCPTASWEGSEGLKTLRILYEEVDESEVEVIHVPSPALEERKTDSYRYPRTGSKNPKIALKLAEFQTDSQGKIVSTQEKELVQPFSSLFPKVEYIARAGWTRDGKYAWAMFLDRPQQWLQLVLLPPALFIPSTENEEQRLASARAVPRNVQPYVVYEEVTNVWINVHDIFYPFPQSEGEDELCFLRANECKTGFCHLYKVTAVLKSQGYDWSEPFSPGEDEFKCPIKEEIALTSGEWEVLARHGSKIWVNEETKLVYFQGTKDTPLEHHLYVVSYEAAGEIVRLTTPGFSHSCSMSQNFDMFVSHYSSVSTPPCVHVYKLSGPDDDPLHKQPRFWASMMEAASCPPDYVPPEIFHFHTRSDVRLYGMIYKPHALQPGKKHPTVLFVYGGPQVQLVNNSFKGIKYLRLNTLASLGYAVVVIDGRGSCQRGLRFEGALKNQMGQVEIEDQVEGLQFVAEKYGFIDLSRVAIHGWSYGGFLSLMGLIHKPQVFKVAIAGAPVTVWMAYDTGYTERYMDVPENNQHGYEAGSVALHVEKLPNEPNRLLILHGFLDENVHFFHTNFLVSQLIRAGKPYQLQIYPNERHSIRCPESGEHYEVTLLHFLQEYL
T1 sequence (P27487 whole entry): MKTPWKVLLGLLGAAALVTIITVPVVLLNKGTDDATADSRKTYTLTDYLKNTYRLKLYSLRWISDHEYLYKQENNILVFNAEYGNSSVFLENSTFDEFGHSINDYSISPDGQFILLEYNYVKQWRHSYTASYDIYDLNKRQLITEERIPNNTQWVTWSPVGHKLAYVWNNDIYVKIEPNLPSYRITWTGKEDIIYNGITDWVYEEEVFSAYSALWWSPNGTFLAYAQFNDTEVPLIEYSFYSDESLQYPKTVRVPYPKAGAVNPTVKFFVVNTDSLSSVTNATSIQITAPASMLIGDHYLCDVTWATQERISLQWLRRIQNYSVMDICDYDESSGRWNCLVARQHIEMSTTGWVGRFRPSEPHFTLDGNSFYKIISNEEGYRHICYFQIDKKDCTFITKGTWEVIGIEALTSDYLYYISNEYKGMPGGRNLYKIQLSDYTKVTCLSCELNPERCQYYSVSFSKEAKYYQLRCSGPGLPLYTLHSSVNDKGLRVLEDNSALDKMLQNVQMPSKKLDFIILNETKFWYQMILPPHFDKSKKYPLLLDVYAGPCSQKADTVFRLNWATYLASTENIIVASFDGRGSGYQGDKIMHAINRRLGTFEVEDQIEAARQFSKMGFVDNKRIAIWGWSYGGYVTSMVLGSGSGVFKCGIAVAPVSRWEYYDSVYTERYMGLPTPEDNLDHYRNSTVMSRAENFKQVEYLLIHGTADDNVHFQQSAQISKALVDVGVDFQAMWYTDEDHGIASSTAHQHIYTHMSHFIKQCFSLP

SMILES	IC50 (DP IV [1]) [nM]	IC50 [2] [nM]	Transport (Caco-2 monolayer)	Papp A→B (Caco-2 transport assay) [×10⁻⁶ cm/s]	Papp B→A (Caco-2 transport assay) [×10⁻⁶ cm/s]	Selectivity DPII(IC50)/DPIV(Ki) (DPII)	IC50 (DPII) [nM]	Selectivity DP9(IC50)/DPIV(Ki) (DP9)	Cytotox 100 μM (%) HEPG2 [3] [%]	Viability 100 μM (%) HEP-G2 [3] [%]	Ki (DP IV [4]) [nM]	time immobile (male Sprague Dawley rats; circadian registration, Imipramine 15 mg/kg/day i.p.)	horizontal and vertical (locomotor) activity (male Sprague Dawley rats; [5])	time accessing food and water (fluid) (male Sprague Dawley rats; [5])	locomotor stereotypies (stereotypy index) (male Sprague Dawley rats; first hour of the dark phase, Imipramine: level 2, 3 and 4 stereotypies, Example 130b: usage of available space or stereotypy index)	body weight (gain) (male Sprague Dawley rats; [6])	fluid intake (male Sprague Dawley rats; [6])	food intake (male Sprague Dawley rats; [6])	IC50 (DP9; Gly Pro-AMC 0.25 mM) [nM]	Observed cytotox ([3]; Hep-G2, observation of the cells) [% spheric]
NCc1c(-c2ccc(Cl)cc2Cl)ncn1Cc1ccccc1F [Example 112b, C-[5-(2,4-dichloro-phenyl)-3-(2-fluoro-benzyl)-3H-imidazol-4-yl]-methylamine]	3700	195	good, passive	44.8	42.1	3,514	36900	9,714	3.0	111.4	10.5									
CN(C)CCCN1c2ccccc2CCc2ccccc21 [Imipramine, Imipramine Hydrochloride, reference compound]												spent more time immobile	clearly reduced	lower amount of time	reduction	significantly reduced	significantly reduced	significantly reduced		
NCc1c(-c2ccc(Cl)cc2Cl)ncn1C(CO)c1ccccc1 (stereo not drawn) [Example 126b, 2-[5-aminomethyl-4-(2,4-dichloro-phenyl)-imidazol-1-yl]-2-phenyl-ethanol]		145	good (Papp-values>1e-5 cm/s are assessed as good permeable)	22.5	16.5	1,887	20000	6,670	5.8	118.8	10.6								70700	10
